Format in all cases: cell-based, human
One assay deals with WM9 melanoma cells. The experiment in a line: Induction of apoptosis and cell death by PSVue 643 staining in WM9 melanoma cells. The note with it: WM9, 72 h. As for the experimental part:
Adherent melanoma cells were harvested with 0.05% Trypsin-EDTA and were washed once with 1×DPBS. Cells were labeled with CellTrace™ Violet according to the manufacturer's protocol and were allowed to adhere to tissue culture plates overnight following the drug treatment. […] Cells were then immediately subjected to FACS analysis using a BD LSR II flow cytometer and at least 5,000 cells per sample were acquired.
Cell suspensions were kept in the dark at room temperature for 5 min. 0.2 ml 1×PBS supplemented with 10% FBS was added to each cell suspension and cells were immediately analyzed by BD LSRII.
Briefly, autophagic flux was assessed by FACS analysis of WM9 cells expressing the mCherry-eGFPLC3B construct that were transfected with the indicated siRNAs targeting autophagy and ER stress response and treated for 72 h with DMSO or the combination of PLX4720 at 10 μM and PD0325901 at 1 μM. The data represent the average of 2 biological replicates. […] Autophagic flux was assessed by FACS analysis of WM9 cells expressing the mCherry-eGFPLC3B construct treated for 72 h with Gamitrinib at 1 μM or Spautin-1 at 10 μM in combination with PLX4720 at 10 μM/PD0325901 at 1 μM. Cells treated with DMSO were used as the control for setting up the gate.

Assay [1] deals with mitochondrial respiratory chain complex subunits. The assay is described as follows: Expression of mitochondrial respiratory chain complex subunits in WM9 cells (qRT-PCR, RPPA, immunoblot). The procedure: One μg total mRNA was reverse transcribed using a Maxima First Strand cDNA Synthesis Kit for qRT-PCR (Thermo Fisher). Fast SYBR® Green Master Mix (Life Technologies) was used with cDNA template and primers to evaluate the expression of target genes and GAPDH. Primers used were purchased from Integrated DNA Technologies. Amplifications were performed using an Applied Biosystems® 7500 Real-Time PCR System (Life Technologies). All experiments were performed in triplicate. Expression ratios of controls were normalized to 1. Please see Extended Experimental Procedures for the list of PCR primer sequences. The raw data of gene expression microarrays generated from Illumina Chips were normalized, background-corrected and summarized using the R package “lumi” (Du et al., 2008). […] To reduce false positives, the unexpressed probes were removed. The R package “limma” (Smyth, 2004, 2005) was employed for gene differential expression analysis, followed by multiple test correction by the Benjamini and Hochberg procedure (Benjamini and Hochberg, 1995). […] We also conducted GSEA as previously reported (Subramanian et al., 2005). For GSEA, we analyzed gene sets obtained from the Molecular Signatures Database (broadinstitute.org/gsea/msigdb/). The same differential expression analysis method was applied to RPPA data. Cells were washed with ice-cold PBS containing 100 μM Na3VO4 and scraped off culture dishes. After centrifugation, cell pellets were lysed in buffer containing 10 mM Tris-HCl, pH 7.8, 150 mM NaCl, 1 mM EDTA, 1% Nonidet P-40, 1 mM Na3VO4 and protease inhibitors (Roche complete protease inhibitor tablets). Lysates were cleared by micro-centrifugation and protein concentrations were determined with Protein Assay Dye Reagent Concentrate (Bio-Rad). For western blots, 25 μg of each lysate were run on 15-well 10% or 12% SDS-PAGE gels and transferred onto nitrocellulose membranes using a dye fast Trans-BlotR Turbo™ transfer system (Bio-Rad). Blots were blocked in SEA BLOCK Blocking Buffer (Thermo Scientific) diluted with 1×TBS at 1:1 ratio at room temperature for 1 h, incubated overnight with primary antibody at 4° C., stained with secondary antibodies conjugated to IRDye® Infrared Dyes (LI-COR Biosciences) and then visualized using an Odyssey flatbed scanner (LI-COR Biosciences).
A general note: Quantitative PCR measures a nucleic acid by following its amplification.

The subject of assay [2] is mitochondrial DNA copy number. The assay is described as follows: Mitochondrial DNA copy number. The note with it: WM9, Gamitrinib 1 μM combined with PLX4720 and PD0325901 or LGX818 and MEK162. The procedure: Mitochondria DNA copy number was measured by the ratio of a mitochondrial gene, mtDNA-3, and a nuclear gene, 18S rRNA. The mtDNA-3/18S rRNA ratio was quantified by qRT-PCR on an Applied Biosystems 7500 Fast Real-Time PCR System. The reaction mixtures (25 μL final volume) contained 12.5 μL Fast SYBR Green Master Mix, 500 nM of each primer and 10 ng genomic DNA. The reaction conditions were 95° C. for 20 s, followed by 45 cycles of 95° C. for 3 s and 60° C. for 30 s. The relative mtDNA copy number was analyzed by the 2-ΔΔCt method.

Another assay relates to ATP production. The experiment in a line: ATP production in WM9 cells. Conditions: WM9, 72 h, Gamitrinib combined with PLX4720 10 μM. The procedure:
Cells were seeded into Black Plate, Clear Bottom 96 Well Assay Plates (Corning Inc., cat. #3603) at a density of 5,000 cells/well. Immediately following the drug treatment, culture media were removed. Cells in each well were incubated with a mixture of reagents containing 50 μl DPBS, 50 μl reconstituted CellTiter-Glo® Assay and 0.5 μl CyQUANT for 10 min in the dark. Both ATP luminescence and CyQUANT fluorescence were recorded with a BioTek Multi-Mode Microplate Reader. The ATP production per cell was calculated as the ratio of ATP luminescence over CyQUANT fluorescence.

A further assay concerns reactive oxygen species. The experiment in a line: ROS by CellROX Deep Red. The note with it: WM9, 72 h, Gamitrinib 1 μM with PLX4720 10 μM and PD0325901 1 μM. The procedure:
Adherent melanoma cells were harvested with 0.05% Trypsin-EDTA and were washed once with 1×DPBS. Cells were labeled with CellTrace™ Violet according to the manufacturer's protocol and were allowed to adhere to tissue culture plates overnight following the drug treatment. At indicated time points following the drug treatment, floating and adherent cells were pooled, washed with Hank's Buffered Salt Solution (HBSS) and then stained with CellROX Deep Red at 2.5 μM or MitoTracer Red at 0.25 μM for 1 h in a 37° C. humidified incubator supplied with 5% CO2. Cells were then pelleted, washed with DPBS, and stained with PSVue® 643 at 5 μM diluted in TES buffer for 5 min in the dark. Cells were then immediately subjected to FACS analysis using a BD LSR II flow cytometer and at least 5,000 cells per sample were acquired.
Labeling cells with CellROX Deep Red—Following drug treatment, floating and adherent cells were pooled and stained in FACS tubes with CellROX Deep Red at 2.5 μM. Fluorescent dyes were diluted in 10% DMEM/F12 culture medium. Stained cell suspensions were kept in a 37° C. tissue culture incubator for 60 min with brief vortexing every 30 min. Cells were then washed with 1×PBS supplemented with 10% FBS.

As to Gamitrinib, the “induction of apoptosis and cell death” value in the assay with WM9 melanoma cells (Gamitrinib 1 or 2.5 μM vs 0 or 0.5 μM, with PLX4720 10 μM and PD0325901 1 μM) is “more remarkable induction of apoptosis and cell death”. Further, the “apoptosis and cell death, compared with other inhibitors of the drug screen” value in the assay with WM9 melanoma cells (titrated doses combined with MAPK pathway inhibitors (PLX4720 10 μM, PD0325901 1 μM)) is “greater increase in apoptosis and cell death”. Also, in assay [1] (WM9, 72 h, Gamitrinib 1 μM with PLX4720 10 μM or PLX4720 and PD0325901 1 μM, RPPA), the “expression of mitochondrial respiratory chain complex subunits (SDHA, SDHB, UQCRC2, ATP5H, cyclophilin D) induced by MAPK inhibitors” value is given as “significant reduction”. The “5 mitochondrial respiratory chain complex subunits” value in assay [1] (WM9, immunoblotting, 72 h time course) is “down-regulated”. In addition, the “mitochondrial DNA copy number” value in assay [2] is given as “decreases in mitochondrial DNA copy number”. The ATP production result with ATP production is given as “significantly decreased the ATP production”. For the same substance, the “ROS production compared to MAPK pathway inhibitors alone” value with reactive oxygen species is “markedly increased the ROS production”.
